The numbers were not newly measured in patent US11406602B2, “Substances for reducing occurrence of major cardiac events comprising red yeast rice extract and omega-3 polyunsaturated fatty acid or derivative thereof” (NORDIC NATURALS, INC., priority 2007, dated 2022), which cites them from elsewhere.

The structures appear in SMILES notation.

The conditions of series [1]: 10, 20, and 40 mg/day.
For series [2] the following is noted: prior art description of lovastatin.
A further series has as its system patients. The settings on record: 20 mg/day for 24 weeks.

For the compound `CC[C@H](C)C(=O)O[C@H]1C[C@@H](C)C=C2C=C[C@H](C)[C@H](CC[C@@H]3C[C@@H](O)CC(=O)O3)[C@H]21` [Lovastatin, lovastatin], the decrease in triglycerides (slight decreases) was 5-10%. Also, the “increase in high density lipoproteins (HDL)” value (slight to moderate increases) is listed as 10-20%. Also, in series [1], the “reduction in LDL” value is 21-32% and the “reduction in total cholesterol” value is 16-24%. The reduction in triglycerides in series [1] (higher reduction at lower dosage) was 10 to 6%. Further, in series [2], the water solubility result is reported as “water insoluble”. In the series with patients, the “fall in total cholesterol” value is given as 26% and the fall in triglycerides is given as 12%.
